Like-named read-outs stand apart in the source and are kept apart here.
How the values were obtained:
[1] = tested on: rats with chronic spinal cord injury exhibiting allodynia; test: Intrathecal salicylate for pain: allodynia on light touch in rats with chronic spinal cord injury; format: in vivo, rat; conditions: intrathecal via ESOX pump, 60 μl per day; two rats; saline replaced by salicylate
Protocol: A 1-French silicon tubing was threaded into the intrathecal space from the atlanto-occipital membrane. The intrathecal catheter was connected an ESOX that was implanted subcutaneously. The ESOX pump flowed at a rate of 60 μl per day. Initially, saline was placed in the pumps. At testing on days 2, 12, 14 after pump placement, signs of allodynia were consistently observed when the animals were lightly touched at particular parts of their body (left flank for rat 1 and right shoulder for rat 2). Animals vocalized consistently when these areas were lightly touched. All of the behavioral testing was done by a person who was unaware of the type of drug delivered or the expected effects of the drug. The saline was removed from the pumps and the pumps were refilled with salicylate. […] When the salicylate was removed and replaced with saline, consistent allodynia was observed.

[2] = tested on: rats with spinal cord injury; test: BBB locomotor test after moderate to severe spinal cord injury; format: in vivo, rat; conditions: intrathecal via ESOX pump, 60 μl per day
Protocol: In this study, twenty-four rats deeply anesthetized rats received a moderate to severe spinal cord injury using a 2-French Fogarty embolectomy catheter. Shortly after injury, a 1-French silicon tubing was threaded into the intrathecal space from the atlanto-occipital membrane. The intrathecal catheter was connected an ESOX that was implanted subcutaneously. The ESOX pump flowed at a rate of 60 μl per day. Animals were randomly assigned to receive saline or salicylate. Animals were tested each week using the BBB locomotor test. All of the behavioral testing was done by a person who was unaware of the type of drug delivered or the expected effects of the drug. […] The average score for the saline treated rats was 0 while the average score for salicylate treated rats was 5.45.

Male Sprague-Dawley rats [3] = conditions: rat, in vivo
Male Sprague-Dawley rats [4] = conditions: rat, in vivo; remark: listed apart in the source
Male Sprague-Dawley rats [5] = conditions: rat, in vivo; remark: listed apart in the source

| Compound | allodynia (vocalization when lightly touched) [1] | functional deficits versus saline [2] | average BBB locomotor score ([2]; started shortly after injury) | duration of effects (Male Sprague-Dawley rats [3]) | onset of response to the bolus (Male Sprague-Dawley rats [3]) | tail flick latency response (Male Sprague-Dawley rats [3]) | colorectal distension visceromotor response threshold (Male Sprague-Dawley rats [4]) | duration of effects (Male Sprague-Dawley rats [4]) | onset of response to the bolus (Male Sprague-Dawley rats [4]) | effect on flinches/licks of the hindpaw (formalin test) (Male Sprague-Dawley rats [5]) |
| --- | --- | --- | --- | --- | --- | --- | --- | --- | --- | --- |
| O=C(O)c1ccccc1O [salicylate] | no evidence of allodynia was observed | on average less functional deficits | 5.45 | – | – | – | – | – | – | – |
| choline-magnesium trisalicylate [Choline-Mg-Salicylate] | – | – | – | not long-lasting | rapid in onset | dose-dependent | dose-dependent | not long-lasting | rapid in onset | produced an effect |

— US8513281B1 (priority 1999, dated 2013)
